Measured values: ChEMBL document CHEMBL1201861, “Genomics of Drug Sensitity in Cancer screening data, Wellcome Trust Sanger Institute”
pIC50: −log10 of the molar value.

Experiments:
Experiment in all cases: cells
COLO-792 = type: functional, cell-based; details: Homo sapiens
Description: SANGER: Inhibition of human COLO-792 cell growth in a cell viability assay.

CTV-1 = type: functional, cell-based; details: Homo sapiens;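 note: growth inhibition of the cell line, read out with a cell viability assay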
Description: SANGER: Inhibition of human CTV-1 cell growth in a cell viability assay.

DB = type: functional, cell-based; details: Homo sapiens
Description: SANGER: Inhibition of human DB cell growth in a cell viability assay.

DMS-79 = type: functional, cell-based; details: Homo sapiens;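 note: growth inhibition measured with a cell viability assay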
Description: SANGER: Inhibition of human DMS-79 cell growth in a cell viability assay.

DOHH-2 = type: functional, cell-based; details: Homo sapiens;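 note: growth inhibition of human DOHH-2 cells, read out with a cell viability assay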
Description: SANGER: Inhibition of human DOHH-2 cell growth in a cell viability assay.

Detroit 562 = type: functional, cell-based; details: Homo sapiens;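 note: growth inhibition of human Detroit 562 cells, read out by a cell viability assay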
Description: SANGER: Inhibition of human Detroit562 cell growth in a cell viability assay.

ES5 = type: functional, cell-based; details: Homo sapiens;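 note: growth inhibition of human ES5 cells, read out by a cell viability assay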
Description: SANGER: Inhibition of human ES5 cell growth in a cell viability assay.

ETK-1 = type: functional, cell-based; details: Homo sapiens;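 note: growth inhibition of human ETK-1 cells, read out with a cell viability assay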
Description: SANGER: Inhibition of human ETK-1 cell growth in a cell viability assay.

EW-13 = type: functional, cell-based; details: Homo sapiens;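 note: growth inhibition of EW-13 cells, read out with a cell viability assay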
Description: SANGER: Inhibition of human EW-13 cell growth in a cell viability assay.

GAK = type: functional, cell-based; details: Homo sapiens;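 note: cell growth inhibition read out by a cell viability assay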
Description: SANGER: Inhibition of human GAK cell growth in a cell viability assay.

GB-1 = type: functional, cell-based; details: Homo sapiens;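 note: growth of GB-1 cells judged by a viability assay, IC50 marks the concentration inhibiting growth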
Description: SANGER: Inhibition of human GB-1 cell growth in a cell viability assay.

GR-ST = type: functional, cell-based; details: Homo sapiens
Description: SANGER: Inhibition of human GR-ST cell growth in a cell viability assay.

HCE-4 = type: functional, cell-based; details: Homo sapiens;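 note: cell viability assay measuring inhibition of growth in the human HCE-4 cell line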
Description: SANGER: Inhibition of human HCE-4 cell growth in a cell viability assay.

HCE-T = type: functional, cell-based; details: Homo sapiens;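 note: cell viability assay read-out, reporting inhibition of HCE-T cell growth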
Description: SANGER: Inhibition of human HCE-T cell growth in a cell viability assay.

HD-MY-Z = type: functional, cell-based; details: Homo sapiens;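 note: growth inhibition of HD-MY-Z cells, read out with a cell viability assay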
Description: SANGER: Inhibition of human HD-MY-Z cell growth in a cell viability assay.

HH = type: functional, cell-based; details: Homo sapiens
Description: SANGER: Inhibition of human HH cell growth in a cell viability assay.

HT-144 = type: functional, cell-based; details: Homo sapiens
Description: SANGER: Inhibition of human HT-144 cell growth in a cell viability assay.

IST-SL1 = type: functional, cell-based; details: Homo sapiens;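 note: growth inhibition of human IST-SL1 cells, read out with a cell viability assay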
Description: SANGER: Inhibition of human IST-SL1 cell growth in a cell viability assay.

KARPAS-45 = type: functional, cell-based; details: Homo sapiens;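 note: inhibition of cell line growth, read out through a viability assay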
Description: SANGER: Inhibition of human KARPAS-45 cell growth in a cell viability assay.

KG-1 = type: functional, cell-based; details: Homo sapiens;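 note: growth inhibition of KG-1 cells, read out by a cell viability assay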
Description: SANGER: Inhibition of human KG-1 cell growth in a cell viability assay.

KM12 = type: functional, cell-based; details: Homo sapiens;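 note: KM12 cell growth inhibition, read out with a cell viability assay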
Description: SANGER: Inhibition of human KM12 cell growth in a cell viability assay.

KMOE-2 = type: functional, cell-based; details: Homo sapiens;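 note: growth inhibition of human KMOE-2 cells, read out with a cell viability assay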
Description: SANGER: Inhibition of human KMOE-2 cell growth in a cell viability assay.

KNS-81-FD = type: functional, cell-based; details: Homo sapiens;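 note: growth inhibition of KNS-81-FD cells, read out with a cell viability assay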
Description: SANGER: Inhibition of human KNS-81-FD cell growth in a cell viability assay.

LB2241-RCC = type: functional, cell-based; details: Homo sapiens;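 note: cell viability assay measuring how strongly the cultured human renal carcinoma line is prevented from growing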
Description: SANGER: Inhibition of human LB2241-RCC cell growth in a cell viability assay.

LB2518-MEL = type: functional, cell-based; details: Homo sapiens;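 note: growth inhibition of human LB2518-MEL cells, measured with a cell viability assay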
Description: SANGER: Inhibition of human LB2518-MEL cell growth in a cell viability assay.

LS-123 = type: functional, cell-based; details: Homo sapiens
Description: SANGER: Inhibition of human LS-123 cell growth in a cell viability assay.

MFM-223 = type: functional, cell-based; details: Homo sapiens
Description: SANGER: Inhibition of human MFM-223 cell growth in a cell viability assay.

ML-2 = type: functional, cell-based; details: Homo sapiens;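 note: growth inhibition of ML-2 cells, measured with a cell viability readout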
Description: SANGER: Inhibition of human ML-2 cell growth in a cell viability assay.

MOLT-4 = type: functional, cell-based; details: Homo sapiens;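 note: growth inhibition of MOLT-4 cells, determined with a cell viability readout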
Description: SANGER: Inhibition of human MOLT-4 cell growth in a cell viability assay.

MZ2-MEL = type: functional, cell-based; details: Homo sapiens;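 note: growth inhibition of MZ2-MEL cells read out with a cell viability assay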
Description: SANGER: Inhibition of human MZ2-MEL cell growth in a cell viability assay.

NCI-H1155 = type: functional, cell-based; details: Homo sapiens;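 note: cell growth inhibition measured by a viability assay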
Description: SANGER: Inhibition of human NCI-H1155 cell growth in a cell viability assay.

NCI-H1304 = type: functional, cell-based; details: Homo sapiens;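 note: growth inhibition of the cancer cell line, measured in a cell viability assay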
Description: SANGER: Inhibition of human NCI-H1304 cell growth in a cell viability assay.

NCI-H1395 = type: functional, cell-based; details: Homo sapiens;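 note: cell viability assay read-out quantifying reduced proliferation of human NCI-H1395 cells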
Description: SANGER: Inhibition of human NCI-H1395 cell growth in a cell viability assay.

NCI-H2228 = type: functional, cell-based; details: Homo sapiens;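 note: growth inhibition of human NCI-H2228 cells, read out by a cell viability assay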
Description: SANGER: Inhibition of human NCI-H2228 cell growth in a cell viability assay.

SNU-5 = type: functional, cell-based; details: Homo sapiens;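 note: cell viability readout used to measure growth inhibition in human NCI-SNU-5 cells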
Description: SANGER: Inhibition of human NCI-SNU-5 cell growth in a cell viability assay.

NEC8 = type: functional, cell-based; details: Homo sapiens;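 note: growth inhibition of human NEC8 cells, read out by a cell viability assay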
Description: SANGER: Inhibition of human NEC8 cell growth in a cell viability assay.

NOMO-1 = type: functional, cell-based; details: Homo sapiens;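 note: growth inhibition of human NOMO-1 cells measured by a cell viability assay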
Description: SANGER: Inhibition of human NOMO-1 cell growth in a cell viability assay.

NY = type: functional, cell-based; details: Homo sapiens
Description: SANGER: Inhibition of human NY cell growth in a cell viability assay.

OCI-AML2 = type: functional, cell-based; details: Homo sapiens;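 note: growth inhibition of OCI-AML2 cells, read out with a cell viability assay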
Description: SANGER: Inhibition of human OCI-AML2 cell growth in a cell viability assay.

OE19 = type: functional, cell-based; details: Homo sapiens;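 note: growth inhibition of OE19 cells, measured through a cell viability read-out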
Description: SANGER: Inhibition of human OE19 cell growth in a cell viability assay.

OS-RC-2 = type: functional, cell-based; details: Homo sapiens;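 note: growth inhibition of human OS-RC-2 cells, measured by a cell viability assay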
Description: SANGER: Inhibition of human OS-RC-2 cell growth in a cell viability assay.

P30-OHK = type: functional, cell-based; details: Homo sapiens;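 note: growth inhibition of the P30-OHK cell line, read out with a cell viability assay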
Description: SANGER: Inhibition of human P30-OHK cell growth in a cell viability assay.

QIMR-WIL = type: functional, cell-based; details: Homo sapiens;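 note: growth inhibition of QIMR-WIL cells, read out with a cell viability assay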
Description: SANGER: Inhibition of human QIMR-WIL cell growth in a cell viability assay.

RKO = type: functional, cell-based; details: Homo sapiens;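 note: growth inhibition of human RKO cells, read out with a cell viability assay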
Description: SANGER: Inhibition of human RKO cell growth in a cell viability assay.

RS4-11 = type: functional, cell-based; details: Homo sapiens;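 note: growth inhibition of RS4-11 cells, read out by a cell viability assay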
Description: SANGER: Inhibition of human RS4-11 cell growth in a cell viability assay.

Ramos-2G6-4C10 = type: functional, cell-based; details: Homo sapiens;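 note: growth inhibition of the cell line, measured by a cell viability read-out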
Description: SANGER: Inhibition of human Ramos-2G6-4C10 cell growth in a cell viability assay.

SCC-15 = type: functional, cell-based; details: Homo sapiens;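 note: growth inhibition of SCC-15 cells, read out with a cell viability assay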
Description: SANGER: Inhibition of human SCC-15 cell growth in a cell viability assay.

SF-539 = type: functional, cell-based; details: Homo sapiens;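 note: Read-out is a cell viability assay, with IC50 reflecting inhibition of cell growth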
Description: SANGER: Inhibition of human SF539 cell growth in a cell viability assay.

SH-4 = type: functional, cell-based; details: Homo sapiens;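 note: growth inhibition of SH-4 cells, read out with a cell viability assay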
Description: SANGER: Inhibition of human SH-4 cell growth in a cell viability assay.

SNB-75 = type: functional, cell-based; details: Homo sapiens;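 note: cell viability assay measuring growth inhibition of human SNB-75 cells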
Description: SANGER: Inhibition of human SNB75 cell growth in a cell viability assay.

SW 954 = type: functional, cell-based; details: Homo sapiens;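 note: growth inhibition of SW954 human cancer cells, read out as cell viability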
Description: SANGER: Inhibition of human SW954 cell growth in a cell viability assay.

769-P = type: functional, cell-based; details: Homo sapiens
Description: SANGER: Inhibition of human 769-P cell growth in a cell viability assay.

C-33-A = type: functional, cell-based; details: Homo sapiens;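 note: cell viability assay measuring growth inhibition of C-33-A cells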
Description: SANGER: Inhibition of human C-33-A cell growth in a cell viability assay.

CAL-12T = type: functional, cell-based, Homo sapiens; details: Homo sapiens, CAL-12T;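 note: growth inhibition of human CAL-12T cells, read out with a cell viability assay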
Description: SANGER: Inhibition of human CAL-12T cell growth in a cell viability assay.

TE-6 = type: functional, cell-based; details: Homo sapiens;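 note: growth inhibition of TE-6 cells, read out with a cell viability assay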
Description: SANGER: Inhibition of human TE-6 cell growth in a cell viability assay.

TE-9 = type: functional, cell-based; details: Homo sapiens;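 note: cell growth inhibition, measured with a cell viability readout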
Description: SANGER: Inhibition of human TE-9 cell growth in a cell viability assay.

U-87 MG = type: functional, cell-based, U-87MG ATCC; details: Homo sapiens;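 note: growth inhibition of the cells measured with a viability assay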
Description: SANGER: Inhibition of human U-87-MG cell growth in a cell viability assay.

UACC-257 = type: functional, cell-based; details: Homo sapiens
Description: SANGER: Inhibition of human UACC-257 cell growth in a cell viability assay.

CAS-1 = type: functional, cell-based; details: Homo sapiens;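 note: growth inhibition of CAS-1 cells, measured with a cell viability assay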
Description: SANGER: Inhibition of human CAS-1 cell growth in a cell viability assay.

EOL1 = type: functional, cell-based; details: Homo sapiens;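 note: growth inhibition of EoL-1 cells, read out by a cell viability assay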
Description: SANGER: Inhibition of human EoL-1-cell cell growth in a cell viability assay.

KU812 cell line = type: functional, cell-based; details: Homo sapiens
Description: SANGER: Inhibition of human KU812 cell growth in a cell viability assay.

NC(=O)c1ncn([C@@H]2O[C@H](COP(=O)(O)O)[C@@H](O)[C@H]2O)c1N
pIC50 (COLO-792): < 2.70 | pIC50 (CTV-1): 3.58 | pIC50 (DB): 4.04 | pIC50 (DMS-79): < 2.70 | pIC50 (DOHH-2): 2.88 | pIC50 (Detroit 562): 2.91 | pIC50 (ES5): < 2.70 | pIC50 (ETK-1): 3.27 | pIC50 (EW-13): < 2.70 | pIC50 (GAK): < 2.70 | pIC50 (GB-1): < 2.70 | pIC50 (GR-ST): 3.37 | pIC50 (HCE-4): 2.77 | pIC50 (HCE-T): 3.15 | pIC50 (HD-MY-Z): 2.71 | pIC50 (HH): 3.63 | pIC50 (HT-144): < 2.70 | pIC50 (IST-SL1): < 2.70 | pIC50 (KARPAS-45): 2.85 | pIC50 (KG-1): 3.52 | pIC50 (KM12): < 2.70 | pIC50 (KMOE-2): 3.38 | pIC50 (KNS-81-FD): < 2.70 | pIC50 (LB2241-RCC): 2.86 | pIC50 (LB2518-MEL): < 2.70 | pIC50 (LS-123): 3.16 | pIC50 (MFM-223): 2.94 | pIC50 (ML-2): < 2.70 | pIC50 (MOLT-4): 3.31 | pIC50 (MZ2-MEL): < 2.70 | pIC50 (NCI-H1155): 3.10 | pIC50 (NCI-H1304): < 2.70 | pIC50 (NCI-H1395): < 2.70 | pIC50 (NCI-H2228): 2.71 | pIC50 (SNU-5): < 2.70 | pIC50 (NEC8): < 2.70 | pIC50 (NOMO-1): 3.07 | pIC50 (NY): 3.31 | pIC50 (OCI-AML2): 2.94 | pIC50 (OE19): < 2.70 | pIC50 (OS-RC-2): < 2.70 | pIC50 (P30-OHK): 3.27 | pIC50 (QIMR-WIL): 3.31 | pIC50 (RKO): 3.08 | pIC50 (RS4-11): 3.45 | pIC50 (Ramos-2G6-4C10): 3.62 | pIC50 (SCC-15): 3.33 | pIC50 (SF-539): < 2.70 | pIC50 (SH-4): < 2.70 | pIC50 (SNB-75): 2.86 | pIC50 (SW 954): 3.38 | pIC50 (769-P): < 2.70 | pIC50 (C-33-A): < 2.70 | pIC50 (CAL-12T): 3.18 | pIC50 (TE-6): < 2.70 | pIC50 (TE-9): < 2.70 | pIC50 (U-87 MG): < 2.70 | pIC50 (UACC-257): < 2.70 | pIC50 (CAS-1): < 2.70

CC[C@@]1(O)C(=O)OCc2c1cc1n(c2=O)Cc2cc3ccccc3nc2-1 [CAMPTOTHECIN]
pIC50 (CTV-1): 9.04 | pIC50 (DB): 8.94 | pIC50 (DMS-79): 7.50 | pIC50 (DOHH-2): 9.22 | pIC50 (Detroit 562): 7.87 | pIC50 (ES5): 9.11 | pIC50 (ETK-1): 7.46 | pIC50 (EW-13): 8.49 | pIC50 (EOL1): 9.57 | pIC50 (GB-1): 8.33 | pIC50 (GR-ST): 9.15 | pIC50 (HCE-4): 8.74 | pIC50 (HCE-T): 8.26 | pIC50 (HD-MY-Z): 8.79 | pIC50 (HH): 7.87 | pIC50 (HT-144): 7.75 | pIC50 (IST-SL1): 7.46 | pIC50 (KG-1): 8.95 | pIC50 (KM12): 7.12 | pIC50 (KMOE-2): 7.95 | pIC50 (KNS-81-FD): 7.71 | pIC50 (KU812 cell line): 8.08 | pIC50 (LB2241-RCC): 8.68 | pIC50 (LB2518-MEL): 7.06 | pIC50 (LS-123): < 7.00 | pIC50 (MFM-223): < 7.00 | pIC50 (ML-2): 8.66 | pIC50 (MOLT-4): 8.79 | pIC50 (MZ2-MEL): 7.85 | pIC50 (NCI-H1155): 8.93 | pIC50 (NCI-H1304): 7.23 | pIC50 (NCI-H2228): 7.31 | pIC50 (SNU-5): 7.37 | pIC50 (NEC8): 8.51 | pIC50 (NOMO-1): 8.81 | pIC50 (NY): < 7.00 | pIC50 (OCI-AML2): 9.05 | pIC50 (OE19): < 7.00 | pIC50 (OS-RC-2): 8.00 | pIC50 (P30-OHK): 8.55 | pIC50 (QIMR-WIL): 9.11 | pIC50 (RKO): 8.37 | pIC50 (RS4-11): 9.04 | pIC50 (Ramos-2G6-4C10): 7.98 | pIC50 (SCC-15): 7.73 | pIC50 (SF-539): 8.05 | pIC50 (SH-4): 7.22 | pIC50 (SNB-75): 7.76 | pIC50 (SW 954): 7.69 | pIC50 (769-P): 7.60 | pIC50 (C-33-A): 8.19 | pIC50 (TE-9): 7.63 | pIC50 (U-87 MG): 8.18
